From article PMC11995724, “Antibiotic target discovery by integrated phenotypic and activity-based profiling of electrophilic fragments” (Cell chemical biology, 2025)

Test: in vitro
Settings: human, hek293t cells

Structure (SMILES) | viability at 48 h, 25 µM [%]
CC(Cl)C(=O)NC1(C(=O)N(C)C)CC(F)(F)C1 (stereo not drawn) [7-K20, 1-(2-chloropropanamido)-3,3-difluoro-N,N-dimethylcyclobutane-1-carboxamide] | 83.7
CC(Cl)C(=O)NC(c1cc(Cl)ccc1Cl)C1CCOC1 (stereo not drawn) [7-K21, 2-chloro-N-[(2,5-dichlorophenyl)(oxolan-3-yl)methyl]propanamide] | 87.9
CC(Cl)C(=O)N1CCN(c2nc3ccccc3o2)C(C)C1 (stereo not drawn) [7-K22, 1-[4-(1,3-benzoxazol-2-yl)-3-methylpiperazin-1-yl]-2-chloropropan-1-one] | 76.1
O=C(CCl)NC1CCN(C(=O)COc2ccccc2)C1 (stereo not drawn) [7-L03, 2-chloro-N-[1-(2-phenoxyacetyl)pyrrolidin-3-yl]acetamide] | 0.757
CN1c2ccccc2C(NC(=O)CCl)CS1(=O)=O (stereo not drawn) [7-L04, 2-chloro-N-(1-methyl-2,2-dioxo-3,4-dihydro-1H-2lambda6,1-benzothiazin-4-yl)acetamide] | 0.505
CC(Cl)C(=O)NCCS(=O)(=O)Nc1ccccn1 (stereo not drawn) [7-L05, 2-chloro-N-{2-[(pyridin-2-yl)sulfamoyl]ethyl}propanamide] | 103
O=C(CCl)NCC1CCN(C(=O)c2ccccc2)CC1 [7-L06, N-[(1-benzoylpiperidin-4-yl)methyl]-2-chloroacetamide] | 0.868
CC(Cl)C(=O)N1CCC(NS(=O)(=O)c2cccs2)CC1 (stereo not drawn) [7-L07, N-[1-(2-chloropropanoyl)piperidin-4-yl]thiophene-2-sulfonamide] | 99.7
CN(CC(=O)NC1CCC(O)CC1)C(=O)CCl (stereo not drawn) [7-L08, 2-chloro-N-{[(4-hydroxycyclohexyl)carbamoyl]methyl}-N-methylacetamide] | 0.707
CC(Cl)C(=O)NCCc1ccc[nH]1 (stereo not drawn) [7-L09, 2-chloro-N-[2-(1H-pyrrol-2-yl)ethyl]propanamide] | 91.9
CCC(c1cc(Cl)cc(Cl)c1)N(C)C(=O)CCl (stereo not drawn) [7-L10, 2-chloro-N-[1-(3,5-dichlorophenyl)propyl]-N-methylacetamide] | 0.495
CC(Cl)C(=O)N1CCCC1c1cccc2c1OCCO2 (stereo not drawn) [7-L11, 2-chloro-1-[2-(2,3-dihydro-1,4-benzodioxin-5-yl)pyrrolidin-1-yl]propan-1-one] | 89.6
CC1CCCN1C(=O)CNC(=O)CCl (stereo not drawn) [7-L12, 2-chloro-N-[2-(2-methylpyrrolidin-1-yl)-2-oxoethyl]acetamide] | 83.6
CC(Cl)C(=O)N1CCC(C(=O)c2cccs2)CC1 (stereo not drawn) [7-L13, 2-chloro-1-[4-(thiophene-2-carbonyl)piperidin-1-yl]propan-1-one] | 86.7
C[C@H](NC(=O)CCl)C(=O)N1CCCCC1 [7-L14, 2-chloro-N-[(2S)-1-oxo-1-(piperidin-1-yl)propan-2-yl]acetamide] | 70.1
CC(Cl)C(=O)N1CCCN(c2ccc(-c3ccccc3)nn2)CC1 (stereo not drawn) [7-L15, 2-chloro-1-[4-(6-phenylpyridazin-3-yl)-1,4-diazepan-1-yl]propan-1-one] | 76.7
O=C(CCl)NC1Cc2ccccc2N(C(=O)C(F)(F)F)C1 (stereo not drawn) [7-L16, 2-chloro-N-[1-(2,2,2-trifluoroacetyl)-1,2,3,4-tetrahydroquinolin-3-yl]acetamide] | 0.649
CC(Cl)C(=O)N(Cc1ccco1)C1CCN(C)CC1 (stereo not drawn) [7-L17, 2-chloro-N-[(furan-2-yl)methyl]-N-(1-methylpiperidin-4-yl)propanamide] | 101
COc1ccccc1[C@H]1C[C@H](NC(=O)CCl)C1 [7-L18, 2-chloro-N-[(1r,3r)-3-(2-methoxyphenyl)cyclobutyl]acetamide] | 0.928
CC(Cl)C(=O)NCc1nc(C2CC2)n[nH]1 (stereo not drawn) [7-L19, 2-chloro-N-[(3-cyclopropyl-1H-1,2,4-triazol-5-yl)methyl]propanamide] | 91.3
O=C(CCl)NCCc1ccn(C2CCCC2)n1 [7-L20, 2-chloro-N-[2-(1-cyclopentyl-1H-pyrazol-3-yl)ethyl]acetamide] | 38.7
CC(NC(=O)CCl)c1nnc(-c2ccccc2F)s1 (stereo not drawn) [7-L21, 2-chloro-N-{1-[5-(2-fluorophenyl)-1,3,4-thiadiazol-2-yl]ethyl}acetamide] | 0.564
Cc1cc(CNC(=O)CCl)[nH]n1 [7-L22, 2-chloro-N-[(3-methyl-1H-pyrazol-5-yl)methyl]acetamide] | 90.6
Cc1cnc(C(C)N2CCN(C(=O)C(C)Cl)CC2)s1 (stereo not drawn) [7-M03, 2-chloro-1-{4-[1-(5-methyl-1,3-thiazol-2-yl)ethyl]piperazin-1-yl}propan-1-one] | 97.5
CC(Cl)C(=O)N(C)Cc1cn(C)nc1C(F)(F)F (stereo not drawn) [7-M04, 2-chloro-N-methyl-N-{[1-methyl-3-(trifluoromethyl)-1H-pyrazol-4-yl]methyl}propanamide] | 91.6
CC(Cl)C(=O)NCC1CCCN(c2nccn3cnnc23)C1 (stereo not drawn) [7-M05, 2-chloro-N-[(1-{[1,2,4]triazolo[4,3-a]pyrazin-8-yl}piperidin-3-yl)methyl]propanamide] | 102

Structure (SMILES) | viability at 48 h, 25 µM [%]
CCc1nocc1CN(C)C(=O)C(C)Cl (stereo not drawn) [7-M06, 2-chloro-N-[(3-ethyl-1,2-oxazol-4-yl)methyl]-N-methylpropanamide] | 95.1
Cc1nnsc1CNC(=O)C(C)Cl (stereo not drawn) [7-M07, 2-chloro-N-[(4-methyl-1,2,3-thiadiazol-5-yl)methyl]propanamide] | 89
CC(Cl)C(=O)NC(Cn1cncn1)c1ccccc1 (stereo not drawn) [7-M09, 2-chloro-N-[1-phenyl-2-(1H-1,2,4-triazol-1-yl)ethyl]propanamide] | 90.3
CC(Cl)C(=O)N1CC(c2cc(CO)on2)C1 (stereo not drawn) [7-M10, 2-chloro-1-{3-[5-(hydroxymethyl)-1,2-oxazol-3-yl]azetidin-1-yl}propan-1-one] | 84.9
CC(Cl)C(=O)NCCCN1CCc2ccccc2C1 (stereo not drawn) [7-M11, 2-chloro-N-[3-(1,2,3,4-tetrahydroisoquinolin-2-yl)propyl]propanamide] | 88.4
Cc1cccc2nc(C3CCN(C(=O)C(C)Cl)CC3)oc12 (stereo not drawn) [7-M12, 2-chloro-1-[4-(7-methyl-1,3-benzoxazol-2-yl)piperidin-1-yl]propan-1-one] | 79.6
CC(Cl)C(=O)NCc1cnn2ccccc12 (stereo not drawn) [7-M13, 2-chloro-N-({pyrazolo[1,5-a]pyridin-3-yl}methyl)propanamide] | 104
CC(Cl)C(=O)N(C)C1CS(=O)(=O)c2ccc(Cl)cc21 (stereo not drawn) [7-M14, 2-chloro-N-(5-chloro-1,1-dioxo-2,3-dihydro-1lambda6-benzothiophen-3-yl)-N-methylpropanamide] | 73
CC(Cl)C(=O)N1CC(S(=O)(=O)c2ccccc2F)C1 (stereo not drawn) [7-M15, 2-chloro-1-[3-(2-fluorobenzenesulfonyl)azetidin-1-yl]propan-1-one] | 96.3
CC(Cl)C(=O)N1CCCC(c2cnn(C)c2)C1 (stereo not drawn) [7-M16, 2-chloro-1-[3-(1-methyl-1H-pyrazol-4-yl)piperidin-1-yl]propan-1-one] | 82
CC(Cl)C(=O)NC(c1cccc(C(F)(F)F)c1)c1nnc[nH]1 (stereo not drawn) [7-M17, 2-chloro-N-[(4H-1,2,4-triazol-3-yl)[3-(trifluoromethyl)phenyl]methyl]propanamide] | 75.1
CC(Cl)C(=O)NCCc1cnc2c(Cl)cnn2c1 (stereo not drawn) [7-M18, 2-chloro-N-(2-{3-chloropyrazolo[1,5-a]pyrimidin-6-yl}ethyl)propanamide] | 90.6
Cc1cc(NC(=O)CN(C)C(=O)C(C)Cl)no1 (stereo not drawn) [7-M19, 2-chloro-N-methyl-N-{[(5-methyl-1,2-oxazol-3-yl)carbamoyl]methyl}propanamide] | 79.5
COCc1ncc2c(n1)CC1CCC2N1C(=O)C(C)Cl (stereo not drawn) [7-M20, 2-chloro-1-[5-(methoxymethyl)-4,6,12-triazatricyclo[7.2.1.0,2,7]dodeca-2,4,6-trien-12-yl]propan-1-one] | 77
CC(Cl)C(=O)NC(C)C(=O)N1CCc2ccccc21 (stereo not drawn) [7-M21, 2-chloro-N-[1-(2,3-dihydro-1H-indol-1-yl)-1-oxopropan-2-yl]propanamide] | 84.1
CC(NC(=O)CCl)c1nc2c(s1)CCCCC2 (stereo not drawn) [7-M22, 2-chloro-N-(1-{4H,5H,6H,7H,8H-cyclohepta[d][1,3]thiazol-2-yl}ethyl)acetamide] | 0.506
O=C(CCl)NC(Cn1cncn1)c1ccccc1 (stereo not drawn) [7-N03, 2-chloro-N-[1-phenyl-2-(1H-1,2,4-triazol-1-yl)ethyl]acetamide] | 0.644
N#Cc1cccc(C(NC(=O)CCl)C(F)(F)F)c1 (stereo not drawn) [7-N04, 2-chloro-N-[1-(3-cyanophenyl)-2,2,2-trifluoroethyl]acetamide] | 0.24
CC(Cl)C(=O)N1CCN(Cc2nnnn2-c2ccccc2)CC1 (stereo not drawn) [7-N05, 2-chloro-1-{4-[(1-phenyl-1H-1,2,3,4-tetrazol-5-yl)methyl]piperazin-1-yl}propan-1-one] | 97.8
COc1ccc(Cl)cc1C(O)CNC(=O)CCl (stereo not drawn) [7-N06, 2-chloro-N-[2-(5-chloro-2-methoxyphenyl)-2-hydroxyethyl]acetamide] | 0.942
CC(Cl)C(=O)N1CCCN(C(=O)c2cc(Cl)cn2C)CC1 (stereo not drawn) [7-N07, 2-chloro-1-[4-(4-chloro-1-methyl-1H-pyrrole-2-carbonyl)-1,4-diazepan-1-yl]propan-1-one] | 94.5
O=C(CCl)NCCCC(=O)N1CCCC1 [7-N08, 2-chloro-N-[4-oxo-4-(pyrrolidin-1-yl)butyl]acetamide] | 93.6
O=C(CCl)NC(Cc1ccccc1)c1ccccc1F (stereo not drawn) [7-N10, 2-chloro-N-[1-(2-fluorophenyl)-2-phenylethyl]acetamide] | 0.701
CC(Cl)C(=O)NCC(=O)Nc1ccc2c[nH]nc2c1 (stereo not drawn) [7-N11, 2-chloro-N-{[(2H-indazol-6-yl)carbamoyl]methyl}propanamide] | 97
O=C(CCl)NCc1ccccc1SC(F)(F)F [7-N12, 2-chloro-N-({2-[(trifluoromethyl)sulfanyl]phenyl}methyl)acetamide] | 0.794
